Laboratory results published in US20240139349A1, “GADOLINIUM CHELATE, PREPARATION METHOD THEREFOR, AND APPLICATION THEREOF” (SUZHOU ZHECI PHARMACEUTICAL TECHNOLOGY CO., LTD., priority 2021, published 2024).
Like-named read-outs stand apart in the source and are kept apart here.

Assay: In vitro MRI determination of longitudinal and transverse relaxation rates (r1, r2) of aqueous solutions
Assay type: physicochemical
Conditions: for r1 (longitudinal relaxation rate) / r2 (transverse relaxation rate): aqueous solutions
[1] = H0 3.0 T clinical MRI system (Philips, Ingenia)
[2] = H0 7.0 T small animal MRI system

r2/r1 (H0 3.0 T)	r1 (longitudinal relaxation rate) [2] [M⁻¹ s⁻¹]	Compound	r1 (longitudinal relaxation rate) [1] [M⁻¹ s⁻¹]	r2 (transverse relaxation rate) [1] [M⁻¹ s⁻¹]	r2/r1
1.07 ± 0.03	3770	O=C([O-])CN1CCN(CC(=O)[O-])CCN([C@H](CO)[C@H](O)CO)CCN(CC(=O)[O-])CC1.[Gd+3] (racemic) [Gadavist, Gd-BT-DO3A]	4600 ± 90	4900 ± 40	–
1.03 ± 0.03	3680	O=C([O-])CN(CCN(CC(=O)[O-])CC(=O)O)CCN(CC(=O)[O-])CC(=O)O.[Gd+3] [Magnevist, Gd-DTPA]	4880 ± 120	5000 ± 100	–

Compound	r2/r1 (H0 3.0 T)	r1 (longitudinal relaxation rate) [2] [M⁻¹ s⁻¹]	r1 (longitudinal relaxation rate) [1] [M⁻¹ s⁻¹]	r2 (transverse relaxation rate) [1] [M⁻¹ s⁻¹]	r2/r1
O=[N+]([O-])[O-].O=[N+]([O-])[O-].O=[N+]([O-])[O-].[Gd+3] [Gd(NO3)3, gadolinium nitrate]	–	8920	11390 ± 250	12040 ± 310	1.06 ± 0.006
Gd-BSA: gadolinium chelate of bovine serum albumin	1.72±0.02	–	34880 ± 1060	59920 ± 1570	–
